From ChEMBL document CHEMBL1150029, “QSAR of HIV inhibitors” (Bioorg Med Chem Lett, 1992)
Several values for one entry are separate records, joined by “and”; a condition that tells them apart may be missing. Equal values may be shown once. Activity calls are given as the source filed them. The rule behind the calls is not given here.

Columns and labels:
MT4 = assay: Tested for 50% protection of MT-4 cells from HIV infection; type: functional
ATH-8 cell line [1] = assay: Compound was tested for % Protection of ATH8 cells from HIV infection by 2 pM concentration of nucleoside; inactive; type: functional, cell-based; settings: Homo sapiens
ATH-8 cell line [2] = assay: Compound was tested for % Protection of ATH8 cells from HIV infection by 2 pM concentration of nucleoside; type: functional, Homo sapiens

## CCc1c(Sc2cc(C)cc(C)c2)n(COCCO)c(=S)[nH]c1=O
MT4
  Log 1/C: 8.11

## CC(C)c1c(Sc2ccccc2)n(COCCO)c(=O)[nH]c1=O
MT4
  Log 1/C: 7.2

## Cc1c(Sc2ccccc2[N+](=O)[O-])n(COCCO)c(=O)[nH]c1=O
MT4
  Log 1/C: 3.85

## CCCc1c(Sc2ccccc2)n(COCCO)c(=S)[nH]c1=O
MT4
  Log 1/C: 5

## Cc1cc(C)cc(Sc2c(C(C)C)c(=O)[nH]c(=S)n2COCCO)c1
MT4
  Log 1/C: 8.3

## Cc1c(Sc2cccc(C(C)(C)C)c2)n(COCCO)c(=O)[nH]c1=O
MT4
  Log 1/C: 4.92

## Cc1c(Sc2cccc(O)c2)n(COCCO)c(=O)[nH]c1=O
MT4
  Log 1/C: 4.09

## CCc1c(Sc2ccccc2)n(COCCO)c(=O)[nH]c1=O
MT4
  Log 1/C: 6.92 and 6.96

## OCC1CCC(n2cnc3c(S)ncnc32)O1 (stereo unspecified)
ATH-8 cell line [1]
  Log: inactive

## Cc1cc(C)cc(Sc2c(C)c(=O)[nH]c(=S)n2COCCO)c1
MT4
  Log 1/C: 6.66

## COc1cccc(Sc2c(C)c(=O)[nH]c(=O)n2COCCO)c1
MT4
  Log 1/C: 4.66

## COC(=O)c1cccc(Sc2c(C)c(=O)[nH]c(=O)n2COCCO)c1
MT4
  Log 1/C: 5.1

## Cc1c(Sc2cccc(C(F)(F)F)c2)n(COCCO)c(=O)[nH]c1=O
MT4
  Log 1/C: 4.35

## Cc1c(Sc2cccc(Br)c2)n(COCCO)c(=O)[nH]c1=O
MT4
  Log 1/C: 5.24

## CCc1cccc(Sc2c(C)c(=O)[nH]c(=O)n2COCCO)c1
MT4
  Log 1/C: 5.57

## COCc1cccc(Sc2c(C)c(=O)[nH]c(=O)n2COCCO)c1
MT4
  Log 1/C: 5.14

## Cc1c(Sc2cccc(Cl)c2)n(COCCO)c(=O)[nH]c1=O
MT4
  Log 1/C: 4.89

## CCc1c(Sc2cc(Cl)cc(Cl)c2)n(COCCO)c(=O)[nH]c1=O
MT4
  Log 1/C: 7.85

## C=CCc1c(Sc2ccccc2)n(COCCO)c(=O)[nH]c1=O
MT4
  Log 1/C: 5.6

## CC(C)c1c(Sc2ccccc2)n(COCCO)c(=S)[nH]c1=O
MT4
  Log 1/C: 7.23

## Nc1nc(Cl)nc2c1ncn2C1CCC(CO)O1 (stereo unspecified)
ATH-8 cell line [2]
  Log: 0%

## Cc1c(Sc2cccc(F)c2)n(COCCO)c(=O)[nH]c1=O
MT4
  Log 1/C: 5.48

## COc1ccccc1Sc1c(C)c(=O)[nH]c(=O)n1COCCO
MT4
  Log 1/C: 4.72

## CCc1c(Sc2cc(Cl)cc(Cl)c2)n(COCCO)c(=S)[nH]c1=O
MT4
  Log 1/C: 7.37

## Cc1c(Sc2cccc(C#N)c2)n(COCCO)c(=O)[nH]c1=O
MT4
  Log 1/C: 5

## Cc1ccccc1Sc1c(C)c(=O)[nH]c(=O)n1COCCO
MT4
  Log 1/C: 4.15

## Cc1ccc(Sc2c(C)c(=O)[nH]c(=O)n2COCCO)cc1
MT4
  Log 1/C: 3.66

## CCCc1c(Sc2ccccc2)n(COCCO)c(=O)[nH]c1=O
MT4
  Log 1/C: 5.47

## Cc1c(Sc2cccc([N+](=O)[O-])c2)n(COCCO)c(=O)[nH]c1=O
MT4
  Log 1/C: 4.47

## Cc1cccc(Sc2c(C)c(=O)[nH]c(=O)n2COCCO)c1
MT4
  Log 1/C: 5.59

## Cc1c(Sc2cccc(I)c2)n(COCCO)c(=O)[nH]c1=O
MT4
  Log 1/C: 5
